Reference: the supplement of paper PMC7224384

What was measured:
MDA-MB-453 [1] = assay: drug sensitivity score (DSS), in combination with BLU9931 (DSS (weighted AUC score)); higher = more sensitive (stronger viability decrease); extreme values may be limits of the assay; settings: BLU9931 100 nM; 72 h
Method in brief: (§1)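 Compounds from the FIMM Oncology set were predispensed in singlicate at five 10-fold dilutions (10,000-fold range) on 384-well plates. Each well then received 2000 MDA-MB-453 cells in medium with or without an FGFR4 inhibitor (100 nM final) and was kept at 37 °C, 5% CO2. Cellular ATP was read with CellTiterGlo 2.0 after 72 h and normalised per plate to percent viability from control wells. The drug sensitivity score is a weighted area under a four-parameter logistic fit.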

MDA-MB-453 [2] = assay: drug sensitivity score (DSS), single agent (DSS (weighted AUC score)); higher = more sensitive (stronger viability decrease); extreme values may be limits of the assay; settings: BLU9931 0 nM; 72 h
Method in brief: as §1

| SMILES | drug sensitivity score (MDA-MB-453 [1]) | drug sensitivity score (MDA-MB-453 [2]) |
| --- | --- | --- |
| Cc1cc(F)c(C(=O)Nc2cccc(-c3nncn3C(C)C)n2)cc1-n1cnc(C2CC2)c1 [Selonsertib] | 0 | 0 |
| CN1CCN(C(=O)c2ccc3cc(CCNc4ncnc5ccc(C#N)cc45)ccc3c2)CC1 [Senexin B] | 1.3 | 2.4 |
| NC(=O)Nc1cc(-c2cccc(F)c2)sc1C(=O)N[C@H]1CCCNC1 [AZD7762] | 4 | 5 |
| CC(C)(C#N)c1cc(Cn2cncn2)cc(C(C)(C)C#N)c1 [Anastrozole] | 0 | 0 |
| C=CCN(/C=C1/C(=O)O[C@H](COC)[C@@]2(C)C1=C(O)C(=O)C1=C2[C@H](OC(C)=O)C[C@]2(C)C(=O)CC[C@@H]12)CC=C [Sonolisib] | 0 | 0 |
| CC(O)(CS(=O)(=O)c1ccc(F)cc1)C(=O)Nc1ccc(C#N)c(C(F)(F)F)c1 (stereo unspecified) [Bicalutamide] | 2.3 | 2.3 |
| CCCN(CCC)C(=O)C1=Cc2ccc(-c3ccc(C(=O)N4CCCC4)cc3)cc2N=C(N)C1 [Motolimod] | 0 | 0.1 |
| CC(C)Oc1ccc(C(=O)N[C@H](CNC(=O)CN(C)C)Cc2ccc(-c3cn4cccc([C@H](C)O)c4n3)cc2)cc1Cl | 8.8 | 14.3 |
| Cc1ccc(NC(=O)c2ccc(CN3CCN(C)CC3)cc2)cc1Nc1nc(-c2cccnc2)cs1 [Masitinib] | 1.8 | 3.1 |
| CCCOc1ccn2c(C(C)=O)cc(-c3ccccc3S(C)(=O)=O)c2c1 [GSK2801] | 0 | 0 |
| Clc1ccc(C(c2ccccc2Cl)C(Cl)Cl)cc1 (stereo unspecified) [Mitotane] | 0 | 0.6 |
| COc1cccc2c1C(=O)c1c(O)c3c(c(O)c1C2=O)C[C@@](O)(C(=O)CO)C[C@@H]3O[C@H]1C[C@H](N)[C@@H](O)[C@H](C)O1 [Epirubicin] | 5.9 | 7.3 |
| COc1cc(N2CCC(N3CCN(C)CC3)CC2)ccc1Nc1ncc(Cl)c(Nc2ccccc2P(C)(C)=O)n1 [Brigatinib] | 2 | 2.4 |
| S=C(NCc1ccc2c(c1)OCO2)N1CCN(c2ncnc3c2oc2ccccc23)CC1 [Amuvatinib] | 0.3 | 3.3 |
| CCNC(=O)CCC/C=C\C[C@@H]1[C@@H](/C=C/[C@@H](O)CCc2ccccc2)[C@H](O)C[C@@H]1O [Bimatoprost] | 0 | 0 |
| CC1CCC(n2c3cnccc3c3cnc(Nc4ccc5c(n4)CCN(C(=O)CO)C5)nc32)CC1 (stereo unspecified) [AMG-925] | 3.4 | 2.6 |
| CCCCCCCCCCCCCCCCCCOP(=O)([O-])OC1CC[N+](C)(C)CC1 [Perifosine] | 0 | 0 |
| Cn1nnc2c(C(N)=O)ncn2c1=O [Temozolomide] | 0 | 0 |
| O=C(O)CCCCC(CCSCc1ccccc1)SCc1ccccc1 (stereo unspecified) [CPI-613] | 0 | 0 |
| CC(C)(O)CC(=O)NCCn1ccc2ncnc(Nc3ccc(Oc4cccc(C(F)(F)F)c4)c(Cl)c3)c21 [TAK-285] | 6.4 | 5.4 |

| SMILES | drug sensitivity score (MDA-MB-453 [1]) | drug sensitivity score (MDA-MB-453 [2]) |
| --- | --- | --- |
| CCn1cc(-c2ccnc3[nH]c(-c4cccc(CN(C)C)c4)cc23)c(-c2ccc(NC(=O)N(C)C)cc2)n1 | 1 | 1 |
| CS(=O)(=O)c1ccc(C(=O)Nc2ccc(Cl)c(-c3ccccn3)c2)c(Cl)c1 [Vismodegib] | 0 | 0 |
| CC(C)n1nc(-c2ccc3oc(N)nc3c2)c2c(N)ncnc21 [Sapanisertib] | 17.9 | 17.1 |
| CCC1(c2ccc(N)cc2)CCC(=O)NC1=O (stereo unspecified) [Aminoglutethimide] | 1.3 | 0 |
| CC(C)n1cnc2c(NCCc3ccc(O)cc3)nc(-c3csc4ccccc34)nc21 [StemRegenin 1] | 0.4 | 0.3 |
| COCCNCc1ccc(-c2cc3nccc(Oc4ccc(NC(=O)C5(C(=O)Nc6ccc(F)cc6)CC5)cc4F)c3s2)nc1 [Sitravatinib] | 0 | 0.6 |
| CCS(=O)(=O)Nc1ccc(Oc2ccc(F)cc2F)c(-c2cn(C)c(=O)c3[nH]ccc23)c1 [Mivebresib] | 31.1 | 29.9 |
| Nc1cc(F)ccc1NC(=O)c1ccc(CNC(=O)/C=C/c2cccnc2)cc1 [Tucidinostat] | 10.1 | 9.8 |
| Cc1cn(-c2cc(NC(=O)c3ccc(C)c(Nc4nccc(-c5cccnc5)n4)c3)cc(C(F)(F)F)c2)cn1 [Nilotinib] | 1.5 | 1.7 |
| Cc1cc2c(F)c(Oc3ncnn4cc(OC[C@@H](C)O)c(C)c34)ccc2[nH]1 [Brivanib] | 0 | 0 |
| Cc1c(-c2ccc(N3CCc4cccc(C(=O)Nc5nc6ccccc6s5)c4C3)nc2C(=O)O)cnn1CC12CC3CC(CC(C3)C1)C2 | 5.4 | 1.4 |
| O=C(O)c1ccc(O)c2ncccc12 [IOX-1] | 3.6 | 1.6 |
| Cn1cc(C2=Nc3cc(NC(=O)C(N)C4CCCCC4)cc4c3C2=CNNC4=O)cn1 (stereo unspecified) | 9.9 | 14.4 |
| O=C(O)CC[C@H]1CC[C@@](c2cc(F)ccc2F)(S(=O)(=O)c2ccc(Cl)cc2)CC1 [MK-0752] | 0 | 0.1 |
| COCCNCc1ccc(-c2cc3nccc(Oc4ccc(NC(=S)NC(=O)Cc5ccc(F)cc5)cc4F)c3s2)nc1 [Glesatinib] | 0.5 | 0.7 |
| O=C(O)CNC(=O)c1c(O)c2ccccc2n(Cc2ccccc2)c1=O [IOX-2] | 0 | 0 |
| Cc1cnc(Nc2ccc(OCCN3CCCC3)cc2)nc1Nc1cccc(S(=O)(=O)NC(C)(C)C)c1 [Fedratinib] | 6.3 | 8.3 |
| Clc1ccc(Nc2nnc(Cc3ccncc3)c3ccccc23)cc1 [Vatalanib] | 0.3 | 0.8 |
| CNc1nc(Nc2cn(C(C)(C)C#N)nc2C)ncc1C(F)(F)F [GNE-0877] | 0 | 0 |
| COc1cc(N2CCC(N3CCN(C)CC3)CC2)ccc1Nc1ncnc(Nc2ccccc2S(=O)(=O)C(C)C)n1 [ASP3026] | 0.3 | 0.8 |

| SMILES | drug sensitivity score (MDA-MB-453 [1]) | drug sensitivity score (MDA-MB-453 [2]) |
| --- | --- | --- |
| O=C1c2c(O)ccc(O)c2C(=O)c2c(NCCNCCO)ccc(NCCNCCO)c21 [Mitoxantrone] | 5.1 | 4.5 |
| CN(C)C1CCN(C(=O)c2ccc(NC(=O)Nc3ccc(-c4nc(N5CCOCC5)nc(N5CCOCC5)n4)cc3)cc2)CC1 [Gedatolisib] | 23.7 | 22.9 |
| S=c1[nH]cnc2nc[nH]c12 [Mercaptopurine] | 0.7 | 10.9 |
| O=C(c1ccc(F)c(F)c1Nc1ccc(I)cc1F)N1CC(O)([C@@H]2CCCCN2)C1 [Cobimetinib] | 0.3 | 1.7 |
| CC[C@@](C)(Nc1ccnc(-c2c[nH]c3ncccc23)n1)C(=O)NCC(F)(F)F [Decernotinib] | 0 | 0 |
| CN(CC(=O)N(Cc1ccc(C2CCCCC2)cc1)c1ccc(C(=O)O)cc1)S(=O)(=O)c1c(F)c(F)c(F)c(F)c1F [SH-4-54] | 7.4 | 5.4 |
| CC(C)C[C@@H](C(=O)N[C@H](C(=O)OC1CCCC1)c1ccccc1)[C@H](O)C(=O)NO [Tosedostat] | 10.1 | 9.4 |
| CC(C)N(C[C@H]1O[C@@H](n2cnc3c(N)ncnc32)[C@H](O)[C@@H]1O)[C@H]1C[C@@H](CCc2nc3cc(C(C)(C)C)ccc3[nH]2)C1 [Pinometostat] | 0 | 0 |
| C=CCn1c(=O)c2cnc(Nc3ccc(N4CCN(C)CC4)cc3)nc2n1-c1cccc(C(C)(C)O)n1 [AZD1775] | 12.4 | 13.7 |
| CO[C@@H](C(=O)N1Cc2[nH]nc(NC(=O)c3ccc(N4CCN(C)CC4)cc3)c2C1)c1ccccc1 [Danusertib] | 0 | 0.3 |
| COc1cc2/c(=N/c3ccc(Br)cc3F)nc[nH]c2cc1OCC1CCN(C)CC1 [Vandetanib] | 0 | 0 |
| C[C@H](Nc1ncnc2nc[nH]c12)c1cc2cccc(Cl)c2c(=O)n1-c1ccccc1 [Duvelisib] | 0 | 0 |
| CN(C)CC#Cc1ccc(OCCCc2sc(N3CCc4cccc(C(=O)Nc5nc6ccccc6s5)c4C3)nc2C(=O)O)c(F)c1 | 12 | 6.6 |
| O=C(/C=C\n1cnc(-c2cc(C(F)(F)F)cc(C(F)(F)F)c2)n1)NNc1ccccn1 [Verdinexor] | 4.9 | 4.7 |
| CCCCNc1ncc(C(=O)NCc2ccc(-n3ccnc3)cc2)c(NC2CCC(O)CC2)n1 (stereo unspecified) [UNC2881] | 0 | 0 |
| CC[C@@H]1C(=O)N(C)c2cnc(Nc3ccc(C(=O)N[C@H]4CC[C@H](N5CCN(CC6CC6)CC5)CC4)cc3OC)nc2N1C(C)C [Volasertib] | 7.8 | 10.5 |
| O=C(NOCCO)c1ccc2cncn2c1Nc1ccc(I)cc1F [GDC-0623] | 0.5 | 0.4 |
| CCOC(=O)CCNc1cc(N2CCc3ccccc3CC2)nc(-c2ccccn2)n1 [GSK-J4] | 14 | 13.2 |
